In experiment [1] the test system is luciferase+ mouse T cells. In words: proliferation of luciferase+ mouse T cells in vitro (plate-bound anti-CD3, luminescence). It counts as cell-based. Conditions: 96 hours; for lowest concentration of peptide that led to maximal luminescence: luc+ T cell proliferation, plate-bound anti-CD3; for luc+ T cell proliferation: relative luminescence, quadruplicate wells, plate-bound anti-CD3, daily addition of peptide, at the concentration in brackets. An excerpt: (§1) VIP-related peptides tested in silico for predicted binding affinities to human VPAC1 and VPAC2 (Creative Biolabs). Docking scores show predicted free energy change associated with peptide binding. Note that a greater negative score is predicted to be associated with higher binding affinity. Based upon an initial screen of 300 peptides for binding affinity to VPAC1 and screening a subset of 100 peptides for binding affinity to VPAC2, a select group of peptides were synthesized and tested for their ability to stimulate proliferation of luciferase+ mouse T cells in vitro. The lowest concentration of peptide that led to maximal luminescence is shown. Proliferation data represents the relative level of luminescence from quadruplicate wells containing 1×10E5 T cells/well in a 96 well tissue culture plate stimulated for 96 hours with plate-bound anti-CD3 antibodies. Confirmatory in vivo testing of select peptides was then performed based upon their ability to induce autologous anti-leukemia responses in C57Bl/6 mice that had been previously injected with 1×10E6 C1498 acute myeloid leukemia cells. Leukemia cells were injected on day 0, 10 ug peptide was injected s.c. daily on days 6-12. The predicted binding affinity to VPAC1 and/or VPAC2 was associated with enhanced activity in stimulating mouse T cell proliferation and anti-leukemia activity in mice.

The subject of experiment [2] is C1498 acute myeloid leukemia cells. In words: survival of mice engrafted with C1498 acute myeloid leukemia. Type of experiment: in vivo, mouse. Also noted: percentage of survival: concentration or dose not given beside the values. Particulars: for Median survival time / Percentage alive day 60: 1 x 10E6 C1498 i.v. on day 0, 10 ug peptide s.c. daily on days 6-12; for percentage of survival: FIG. 3, leukemia-bearing mice treated with peptide. The procedure:
B6 (CD45.2, H-2K^b) mice were administered C1498 1×10^6/mouse through tail vein. […] Survival of the mice was observed daily. Data were pooled from 3 replicated experiments.
B6 (CD45.2, H-2K^b) mice were administered C1498 1×10^6/mouse through tail vein. […] Survival of the mice was observed daily. Survival of the mice were pooled from 3 replicated experiments and analyzed by log-rank test compared with the survival of mice treated with scrambled peptide.
B6 SJL (CD45.1, H-2K^b) mice were administered C1498 (CD45.2 H-2K^b) 1×10^6/mouse through tail vein. […] The mice were bled weekly from the submandibular vein, starting from day 6, prior to the administration of peptides. Antibodies to CD45.2 identified myeloid leukemia cells and antibodies to CD45.1 identified murine leukocytes of the host.
as §1
To test the ability of the disclosed VIP-R antagonists to effect survival to acute myeloid leukemia survival, B6 (CD45.2, H-2K^b) mice were administered C1498 1×10^6/mouse through tail vein. […] Survival of the mice was observed daily.

In a further experiment the test system is human T cells. Put plainly: activation of healthy-donor human T cells (anti-CD3), marker expression by flow cytometry. Type of experiment: cell-based. Conditions: across multiple donors. The procedure: Mean value from ‘Activated’ group shown with dotted line (---) for comparison. Responses from same healthy donors are shown with same color dots. Error bars are computed as the standard error of the mean (SEM) from 6 healthy donor samples.
This study adopted an ex-vivo system using human T cells isolated from healthy donors to screen for novel VIP-R antagonist peptides. Human T cells were cultured over 6 or 24 hours with activation in the presence or absence of peptides and were assessed for percent CD69 surface expression by flow cytometry to measure the state of T cell activation. The activity of the peptides was determined by percent increase in CD69 expression relative to no peptide control. […] We also observed that amongst the donors, most were classified as average responders, with measured value for CD69 expression within the error bars while two others had measured values outside the error bars, one sample reflecting a super-responder (purple dots) and one sample reflecting a slow-responder (green dots) (FIGS. 10A and 10B). […]
Human T cell activation and expansion. […] Cells were counted using Trypan blue dye and phenotyped via flow cytometry on day 9. […]
For orientation: In flow cytometry, cells or beads pass a laser one at a time.

For the sequence KPRRPYTDNCTRLRKQMAVKKYLNSILN [ANT005], in experiment [1], the “lowest concentration of peptide that led to maximal luminescence” value (“lowest concentration of peptide that led” for short) was determined as 3 µM and the “luc+ T cell proliferation” value was determined as 187% + 1%.

Regarding KPRRPYAVNCTSLRKQIAVNKYLNSILN [ANT202], in experiment [1], the “lowest concentration of peptide that led” value is 3 µM and the “luc+ T cell proliferation” value is listed as 171% + 8%.

KPRRPYTSDYTRLRKQMAVKKYLNSILN [ANT300]: in experiment [1], the “lowest concentration of peptide that led” value stood at 0.3 µM and the “luc+ T cell proliferation” value was 216% + 20%. Also, in experiment [2], the “Median survival time” value came to 47 days and the “Percentage alive day 60” value amounted to 33.30%.

Turning to KPRRPYADNCTRLRKQIAVNKKYLNSILN [ANT114], in experiment [2], the “Median survival time” value is on record as 34 days, the “Percentage alive day 60” value was 20% and the percentage of survival was 20%.

KKPRRPYTVNCTSLRKQIAVKKYLMLILN [ANT219]: in experiment [1], the “lowest concentration of peptide that led” value was 3 µM and the “luc+ T cell proliferation” value was 189% + 8%. Moreover, in experiment [2], the “Median survival time” value was determined as 35 days, the “Percentage alive day 60” value amounted to 20% and the percentage of survival was 20%.

KPRRPYTDNCTSLRKQIAVNKYLNLILN [ANT197]: in experiment [1], the “lowest concentration of peptide that led” value is 3 µM and the “luc+ T cell proliferation” value was 161% + 13%. For the same sequence, in experiment [2], the “Median survival time” value came out at 37 days, the “Percentage alive day 60” value is on record as 35% and the percentage of survival worked out at 35%.

Regarding “KPRRPYTDNYTRLRKQMAVKKYLNSILN [VIPhyb, reference compound]”, in experiment [1], the “lowest concentration of peptide that led” value came to 1 µM and the “luc+ T cell proliferation” value is recorded as 197% + 38%. In addition, in experiment [2], the “Median survival time” value amounted to 34 days, the “Percentage alive day 60” value came out at 5% and the percentage of survival was determined as 5%.

Take “KPRRPYINTKLDKLNTRLVSAQNYMKYR [SCRAM2, reference compound]”: the “luc+ T cell proliferation” value in experiment [1] is on record as 108.74%. Moreover, the “Percentage alive day 60” value in experiment [2] is listed as 0%.

KPRRPYTVNYTSLRKQIAVKKYLMLILN [ANT195]: in experiment [1], the “lowest concentration of peptide that led” value is 3 µM and the “luc+ T cell proliferation” value is recorded as 161% + 23%. In experiment [2], the “Median survival time” value came to 38 days, the “Percentage alive day 60” value is 40% and the percentage of survival was determined as 40%. In addition, the “activity compared among the three antagonists (CD69)” value with human T cells is recorded as “highest activity”.

As to KPRRPYAVNYTRLRKQIAVKKYLMSILN [ANT105], in experiment [1], the “lowest concentration of peptide that led” value worked out at 3 µM and the “luc+ T cell proliferation” value came out at 121% + 6%.

As for KPRRPYAVNCTSLRKQIAVKKYLMSILN [ANT203], in experiment [1], the “lowest concentration of peptide that led” value was 3 µM and the “luc+ T cell proliferation” value stood at 185% + 8%. Further, in experiment [2], the “Median survival time” value amounted to 34 days, the “Percentage alive day 60” value worked out at 25% and the percentage of survival is given as 25%.

For KPRRPYAVNYTRLRKQMAVNKYLMSILN [ANT107], in experiment [2], the “Median survival time” value worked out at 38 days, the “Percentage alive day 60” value is 30% and the percentage of survival turned out to be 20%.

“HSDAVFTDNYTRLRKQMAVKKYLNSILN [VIP, reference compound]”: in experiment [1], the “lowest concentration of peptide that led” value came out at 0.1 µM and the “luc+ T cell proliferation” value is listed as 77% + 13%. In experiment [2], the “Median survival time” value is 30 days and the “Percentage alive day 60” value worked out at 0%.

In the case of KPRRPYADNYTRLRKQMAVNKYLNLILN [ANT058], in experiment [2], the “Median survival time” value is recorded as 35 days, the “Percentage alive day 60” value worked out at 30% and the percentage of survival was 30%.

For “HSDAVFINTKLDKLNTRLVSAQNYMKYR [SCRAM1, reference compound]”, in experiment [2], the “Median survival time” value turned out to be 28 days and the “Percentage alive day 60” value was found to be 0%.

The values are drawn from patent US20240247048A1 (EMORY UNIVERSITY, priority 2021, published 2024).
